In ChEMBL document CHEMBL1909046, “DrugMatrix in vitro pharmacology data”:
*1 amine or outer side, *2 acyl side, *3 side chain or, on linkers, in order; H or OH if unused. Where a SMILES comes first, the peptide text is derived from it. Bridges are numbered along the chain shown (N, C = ends). Roman numbers before positions name the chains, in order. [ ]: non-standard residue; d: D form. Actinocin(1to9) = Cc1c2oc3c(C)ccc(C(=O)[*:2])c3nc-2c(C(=O)[*:1])c(N)c1=O; NMeV = CN[C@H](C(=O)O)C(C)C; Sar = CNCC(=O)O

Experiments:
[1] = target: Sigma non-opioid intracellular receptor 1 (Homo sapiens, UniProt Q99720); experiment: DRUGMATRIX: Sigma1 radioligand binding (ligand: [3H] Haloperidol); type: cell membranes, Jurkat, Membrane; settings: jurkat; Not Active = under 50% inhibition at 10 µM
D(4) dopamine receptor = target: T1, D(4) dopamine receptor (Homo sapiens, UniProt P21917); experiment: DRUGMATRIX: Dopamine D4.2 radioligand binding (ligand: [3H] Spiperone); type: cell membranes, CHO-K1, Membrane; settings: cho-k1; Not Active = under 50% inhibition at 10 µM
T1 sequence (P21917 whole entry): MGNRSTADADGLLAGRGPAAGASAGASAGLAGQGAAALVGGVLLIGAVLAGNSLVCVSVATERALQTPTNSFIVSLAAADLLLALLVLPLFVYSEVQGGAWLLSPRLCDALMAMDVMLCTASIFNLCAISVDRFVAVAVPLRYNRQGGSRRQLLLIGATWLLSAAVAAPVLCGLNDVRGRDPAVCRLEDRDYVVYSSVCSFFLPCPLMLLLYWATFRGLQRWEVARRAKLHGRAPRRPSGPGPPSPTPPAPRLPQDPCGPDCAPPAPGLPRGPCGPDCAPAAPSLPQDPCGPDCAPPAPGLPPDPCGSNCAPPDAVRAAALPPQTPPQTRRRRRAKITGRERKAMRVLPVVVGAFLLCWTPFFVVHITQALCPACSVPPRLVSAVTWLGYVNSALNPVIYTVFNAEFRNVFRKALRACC

[2] = target: T2, Muscarinic acetylcholine receptor M5 (Homo sapiens, UniProt P08912); type: cell membranes, CHO-K1, Membrane; settings: cho-k1; note: in other assays of this panel Not Active means under 50% inhibition at 10 µM
T2 sequence (P08912 whole entry): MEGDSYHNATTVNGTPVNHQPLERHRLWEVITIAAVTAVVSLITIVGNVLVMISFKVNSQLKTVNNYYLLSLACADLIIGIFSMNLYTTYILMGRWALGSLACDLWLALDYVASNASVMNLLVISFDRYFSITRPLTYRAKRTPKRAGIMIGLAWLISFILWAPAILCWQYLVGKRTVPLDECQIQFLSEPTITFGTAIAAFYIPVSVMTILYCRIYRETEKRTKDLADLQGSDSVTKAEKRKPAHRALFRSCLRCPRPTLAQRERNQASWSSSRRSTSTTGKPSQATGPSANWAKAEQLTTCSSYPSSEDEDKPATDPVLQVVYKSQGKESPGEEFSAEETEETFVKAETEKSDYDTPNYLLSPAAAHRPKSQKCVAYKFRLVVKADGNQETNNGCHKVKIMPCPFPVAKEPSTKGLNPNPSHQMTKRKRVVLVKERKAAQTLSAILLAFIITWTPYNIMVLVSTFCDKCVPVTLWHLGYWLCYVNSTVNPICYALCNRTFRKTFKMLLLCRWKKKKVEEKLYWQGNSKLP

[3] = target: Protein kinase C alpha type (Homo sapiens, UniProt P17252); type: cell-based; settings: sf9;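 note: inhibition of PKCalpha kinase activity measured in an enzyme assay with histone as the phosphorylation substrate; in other assays of this panel Not Active means under 50% inhibition at 10 µM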
[4] = target: T3, Receptor-type tyrosine-protein phosphatase C (Homo sapiens, UniProt P08575); parameters: species or system Escherichia coli;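 note: inhibition of CD45 enzyme activity measured using DiFMUP as substrate; in other assays of this panel Not Active means under 50% inhibition at 10 µM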
T3 sequence (P08575 whole entry): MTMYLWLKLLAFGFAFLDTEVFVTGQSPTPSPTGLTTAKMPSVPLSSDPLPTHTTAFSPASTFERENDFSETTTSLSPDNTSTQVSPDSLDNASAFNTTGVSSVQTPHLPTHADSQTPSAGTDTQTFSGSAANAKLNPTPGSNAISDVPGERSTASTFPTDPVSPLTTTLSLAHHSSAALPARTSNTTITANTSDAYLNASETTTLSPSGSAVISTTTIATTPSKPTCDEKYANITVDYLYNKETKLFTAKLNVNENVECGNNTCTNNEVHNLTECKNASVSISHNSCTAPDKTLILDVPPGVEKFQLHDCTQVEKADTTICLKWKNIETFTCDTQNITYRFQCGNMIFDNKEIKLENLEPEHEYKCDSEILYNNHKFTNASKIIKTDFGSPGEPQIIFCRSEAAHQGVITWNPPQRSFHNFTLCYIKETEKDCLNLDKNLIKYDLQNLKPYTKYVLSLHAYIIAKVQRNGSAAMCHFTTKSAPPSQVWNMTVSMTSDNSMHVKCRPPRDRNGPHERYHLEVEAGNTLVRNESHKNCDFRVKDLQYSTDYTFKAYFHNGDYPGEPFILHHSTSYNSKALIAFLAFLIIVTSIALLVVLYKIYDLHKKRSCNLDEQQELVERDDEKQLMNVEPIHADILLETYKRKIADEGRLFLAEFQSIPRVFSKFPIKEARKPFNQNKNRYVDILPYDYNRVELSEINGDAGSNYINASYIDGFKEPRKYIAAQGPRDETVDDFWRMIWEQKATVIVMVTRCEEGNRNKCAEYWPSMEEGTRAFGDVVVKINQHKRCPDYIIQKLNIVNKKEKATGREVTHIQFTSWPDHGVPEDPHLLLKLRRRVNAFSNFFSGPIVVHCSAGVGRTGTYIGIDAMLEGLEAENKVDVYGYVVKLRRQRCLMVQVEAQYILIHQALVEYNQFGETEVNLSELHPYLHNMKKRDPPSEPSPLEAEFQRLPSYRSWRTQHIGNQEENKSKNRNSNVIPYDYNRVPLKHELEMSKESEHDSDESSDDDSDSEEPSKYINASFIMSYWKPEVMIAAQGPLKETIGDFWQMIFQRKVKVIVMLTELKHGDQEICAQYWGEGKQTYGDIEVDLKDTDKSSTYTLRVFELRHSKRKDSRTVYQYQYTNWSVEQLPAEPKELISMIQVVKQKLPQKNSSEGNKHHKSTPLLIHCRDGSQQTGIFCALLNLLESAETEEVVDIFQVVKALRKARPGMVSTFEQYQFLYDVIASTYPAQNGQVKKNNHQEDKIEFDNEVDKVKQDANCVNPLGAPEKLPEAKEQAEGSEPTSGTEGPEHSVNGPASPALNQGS

Measured: IC50

Sequence of Sigma non-opioid intracellular receptor 1 (Q99720 whole entry): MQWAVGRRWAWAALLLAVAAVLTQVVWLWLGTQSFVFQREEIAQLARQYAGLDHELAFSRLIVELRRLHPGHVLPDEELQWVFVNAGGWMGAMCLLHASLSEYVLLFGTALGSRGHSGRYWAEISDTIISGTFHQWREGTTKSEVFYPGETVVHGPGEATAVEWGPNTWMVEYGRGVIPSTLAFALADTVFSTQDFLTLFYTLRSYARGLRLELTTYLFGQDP

O=C(O)CCCc1ccc(N(CCCl)CCCl)cc1 [CHLORAMBUCIL]
Not Active: all assays above

C[C@H](CCC(=O)O)[C@H]1CC[C@H]2[C@@H]3[C@H](O)C[C@@H]4C[C@H](O)CC[C@]4(C)[C@H]3C[C@H](O)[C@]12C [CHOLIC ACID]
Not Active: all assays above

Cc1cc(C2CCCCC2)n(O)c(=O)c1 [CICLOPIROX]
Not Active: all assays above

CC1=C2C(=CO[C@H](C)[C@H]2C)C(O)=C(C(=O)O)C1=O [CITRININ]
Not Active: all assays above

CC(C)(C)NCC(O)c1cc(Cl)c(N)c(Cl)c1 (stereo not given) [CLENBUTEROL]
Not Active: all assays above

CC(C)(Oc1ccc(Cl)cc1)C(=O)O [CLOFIBRIC ACID]
Not Active: all assays above

Clc1cccc(Cl)c1NC1=NCCN1 [CLONIDINE]
Not Active: all assays above

Cc1cc(C(C#N)c2ccc(Cl)cc2)c(Cl)cc1NC(=O)c1cc(I)cc(I)c1O (stereo not given) [CLOSANTEL]
Not Active: all assays above

Cc1onc(-c2ccccc2Cl)c1C(=O)N[C@@H]1C(=O)N2[C@@H]1SC(C)(C)[C@@H]2C(=O)O [CLOXACILLIN]
Not Active: all assays above

CC1CC(OC(=O)C(O)c2ccccc2)CC(C)(C)C1 (stereo not given) [CYCLANDELATE]
Not Active: all assays above

Cc1c2oc3c(C)ccc(C(=O)N[C@@H]4C(=O)N[C@H](C(C)C)C(=O)N5CCC[C@H]5C(=O)N(C)CC(=O)N(C)[C@@H](C(C)C)C(=O)O[C@@H]4C)c3nc-2c(C(=O)N[C@@H]2C(=O)N[C@H](C(C)C)C(=O)N3CCC[C@H]3C(=O)N(C)CC(=O)N(C)[C@@H](C(C)C)C(=O)O[C@@H]2C)c(N)c1=O [DACTINOMYCIN] (I: T[dV]P[Sar][NMeV] / II: T[dV]P[Sar][NMeV]; ester I:1-I:C, II:1-II:C; linker I:N-II:N via Actinocin(1to9))
Not Active: all assays above

Cc1c(O)c(=O)ccn1C [DEFERIPRONE]
Not Active: all assays above

CNCCCN1c2ccccc2CCc2ccccc21 [DESIPRAMINE]
Not Active: all assays above

O=c1oc2ccccc2c(O)c1Cc1c(O)c2ccccc2oc1=O [DICUMAROL]
Not Active: all assays above

C[C@H]1O[C@@H](O[C@H]2[C@@H](O)C[C@H](O[C@H]3[C@@H](O)C[C@H](O[C@H]4CC[C@@]5(C)[C@H](CC[C@@H]6[C@@H]5C[C@@H](O)[C@]5(C)[C@@H](C7=CC(=O)OC7)CC[C@]65O)C4)O[C@@H]3C)O[C@@H]2C)C[C@H](O)[C@@H]1O [DIGOXIN]
Not Active: all assays above
